Test results as given in patent US7094752B2 (Chiron Corporation, priority 1997, dated 2006).
Entries after “also recorded” stand apart in the source; their conditions may differ. Like-named read-outs stand apart in the source and are kept apart here. Ends that are not written are not given here.

Columns and labels:
suPAR [1] = target: T1, suPAR (Homo sapiens, UniProt Q03405); experiment: suPAR binding assay (competition for uPA1–48 binding); settings: synthetic peptide
T1 construct: sUPAR, soluble truncated form of the urokinase receptor; made in house; host or cells: baculovirus-infected Sf9 insect cells
Description: Twenty-eight independent bacteriophage were isolated and the random peptide encoding DNA segments sequenced. […] This is in contrast to previous results of affinity selection on uPAR alone, where the majority of selected bacteriophage bound with substantial yield as described in Goodson et al, Proc.Natl.Acad.Sci. USA 91: 7129–7133 (1994). The yields of these four bacteriophage were determined on suPAR in the presence and absence of uPA1–48. In addition, the encoded peptides were synthesized and tested as competitors in a suPAR binding assay as described in Stratton-Thomas et al, Prot.Eng. 8: 463–470 (1995), and Kaufman et al Anal.Biochem. 211: 261–266 (1993).

[2] = target: T2, uPA1–48:uPAR complexes binding to vitronectin (Homo sapiens, UniProt Q03405); experiment: Vitronectin binding assay (ELISA); settings: 20 nM biotinylated suPAR, 20 nM uPA1–48
T2 construct: sUPAR, soluble truncated form of the urokinase receptor; made in house; host or cells: suPAR: baculovirus-infected Sf9 cells; uPA1-48: recombinant yeast; vitronectin: purified from human plasma
Description: Vitronectin was purified from human plasma by the method of Yatohgo et al, Cello Struct.and Funct. 13: 281–292 (1988). Purified vitronectin was diluted to 20 μg/ml in PBS containing 1 mM CaCl2 and 0.5 mM MgCl2, dispensed at 50 μl/well into Immulon II wells (Dynatech, Chantilly, Va.), incubated overnight at 4° C. and washed with PBS/BSA. Biotinylated sUPAR was diluted to 20 nM in PBS/BSA, incubated with or without test ligand for 30 minutes at room temperature (22° C.), dispensed at 100 μl/well and incubated for 90 minutes. Wells were then washed and horseradish peroxidase (HRP)-conjugated streptavidin was added at 0.4 μg/ml in PBS/2% BSA for 1 hour followed by washing and addition of 100 μl/well TMB substrate. The color development was stopped with 100 μl of 0.8N H2SO4 and the absorbance at 450 nm measured in a 96 well plate reader (Dynatech, Chantilly, Va.). Antagonistic effects of test ligands were measured as described above except the ligands were incubated with 20 nM biotinylated suPAR in the presence of 20 nM uPA1–48.
In order to analyze the effects of the various peptide ligands on the uPAR:vitronectin interaction, we developed an in vitro ELISA based assay for this interaction, in which biotinylated suPAR and uPA1–48 bind to immobilized, urea purified vitronectin, and the bound sUPAR is detected with HRP conjugated streptavidin. Under the conditions of the assay binding of biotinylated uPAR to vitronectin is strictly dependent on uPA1–48, as shown in FIG. 1.

uPAR = target: T3, uPAR (Homo sapiens, UniProt Q03405); experiment: IC 50 (uM)^2
T3 construct: sUPAR, soluble truncated form of the urokinase receptor; made in house; host or cells: baculovirus-infected Sf9 insect cells
Description: Table printed on a drawing sheet, FIG. 6
Head of the field: IC 50 (uM)^2
The patent's description of the figure: FIG 6: Table. The table of FIG 6 depicts the sequences (SEQ ID NOS:12–17), phage yields, and IC50s in uPAR binding assays for selected phage peptides. Legend: 1. Individual phage were incubated with biotinylated suPAR with and without 10 μM uPA1–48 on streptavidin coated wells as described herein. The background yields of all phage without SuPAR in the wells ranged from 0.002–0.025%. Errors in yield are in the range 50%. 2. Apparent inhibition constant of the synthetic peptide in the uPAR receptor binding assay; errors are in the range of 20%. 3. NT=not determined because of peptide insolubility. 4. Clone 20 and 13–32 peptides were as described previously.
First copying reader's note: The head is printed shifted: 'Phage Yield' covers the -1-48 and +1-48 columns and 'IC 50 (uM)' belongs to the last column; the raised marks 1-4 refer to a legend that is not printed on the sheet.
Where the first naming reader finds the target: description_of_the_figure: IC50s in uPAR binding assays for selected phage peptides

sUPAR domain 2–3 (D23) = target: T4, sUPAR domain 2–3 (D23) (Homo sapiens, UniProt Q03405); experiment: Bacteriophage binding to sUPAR domain 2/3; settings: phage-displayed peptide
T4 construct: domains 2 and 3 (amino acids 93–313); made in house; host or cells: baculovirus infected Sf9 insect cells
Description: FIG. 5. Bacteriophage binding to sUPAR domain 2/3. Phage were added to wells containing sUPAR domain 2/3 immobilized by its epitope tag via protein G and monoclonal antibody to the epitope tag. Wells containing protein G and antibody but no domain 2/3 were included to determine nonspecific phage binding. Urea-eluted phage and the input stocks were titered by plaque formation assay. Results were single point determinations calculated as a percent of the input titer and were repeated in three separate experiments.
It was also shown by the inventors that bacteriophage bound to sUPAR domain 2–3fragment. Protein G, 100μl, 1 mg/ml in 50 mM Na2CO3, pH9.6, was added to MaxiSorp wells, incubated overnight at 4° C. and then washed with PBS/BSA. Fifty μl of monoclonal antibody to the epitope tag EYMPME (SEQ ID NO: 18) was added at 1 mg/ml in PBS/BSA and incubated for 2 hours at room temperature. The wells were washed, recombinant sUPAR domain 2–3 (1.7 μM in PBS/BSA) was added and incubated for 1.5 hours at room temperature. The wells were washed prior to the addition of bacteriophage (approximately 10^8 pfu), and then treated as described in the previous section for binding to suPAR.

suPAR [3] = target: T1, suPAR; experiment: SuPAR:1-anilino-8-napthalenesulfonate (ANS) fluorescence; format: binding; settings: 2 μM sUPAR, 10 μM ANS, 0 to 20 μM competitor
Description: Determination of the effect of various peptide ligands on sUPAR/ANS fluorescence was performed following a procedure similar to that of Ploug et al, Biochem. 33: 8991–8997 (1994). Fluorescence emission spectra of sUPAR/ANS solutions with or without competitors were obtained using an Hitachi F-4500 fluorescence spectrophotometer with an excitation wavelength of 386 nm, 5-nm band-pass excitation and emission slits, and a 10 mm path length quartz cuvette. The emission spectra from 400 to 600 nm were recorded. For competition measurements, dilutions of a stock sUPAR/ANS solution were made to give individual 0.5 ml aliquots with a final concentration of 2 μM sUPAR, 10 μM ANS, and 0 to 20 μM competitor in PBS containing 10% DMSO. Fluorescence measurements were made after a one hour incubation at 25° C.

[4] = test system: uPAR mediated adhesion of stimulated U937 cells; experiment: Adhesion of stimulated U937 cells to vitronectin; format: cell-based
From the text: Previous results had shown that vitronectin binding by uPAR correlated with cell adhesion of stimulated U937 cells as described in Wei et al, J. Biol. Chem. 269: 32380–32388 (1994). It was found also that clone 7 peptide could block uPAR mediated adhesion of these cells, whereas the scrambled version of the same peptide had no effect.

nontransfected 293 cells = experiment: Adhesion of nontransfected 293 cells to fibronectin or collagen; format: cell-based; settings: recombinant soluble uPAR added, dose dependent
From the text: To explore whether uPAR binds to integrins, nontransfected 293 cells were allowed to adhere to fibronectin or collagen in the presence of recombinant soluble uPAR (suPAR).

uPA1–48:suPAR complex = target: T5, uPA1–48:suPAR complex (Homo sapiens, UniProt Q03405); experiment: Bacteriophage 7 and 18 binding to uPA1–48:suPAR complex in presence of vitronectin; settings: clone 7 and 18 bacteriophage
T5 construct: sUPAR, soluble truncated form of the urokinase receptor; made in house; host or cells: suPAR: baculovirus-infected Sf9 cells; uPA1-48: recombinant yeast
Description: The ability of the various bacteriophage derived peptides to affect binding of uPA1–48:uPAR complexes to vitronectin was assessed in the ELISA assay. Two classes of peptides were effective antagonists in this assay. […] None of the peptides when tested alone increased the binding of biotinylated suPAR to vitronectin. […] In order to test whether the clone 7 and 18 peptides bound directly at the vitronectin binding site on uPAR, and inhibited vitronectin binding by uPAR:uPA1–48 by direct competition for that site, the inventors examined the effects of vitronectin on the binding of these bacteriophage. Vitronectin reduced bacteriophage binding to the uPA1–48:suPAR complex by 5–10 fold, consistent with the hypothesis that these peptides mimic vitronectin as a uPAR ligand.

T4 sequence (Q03405 115-335): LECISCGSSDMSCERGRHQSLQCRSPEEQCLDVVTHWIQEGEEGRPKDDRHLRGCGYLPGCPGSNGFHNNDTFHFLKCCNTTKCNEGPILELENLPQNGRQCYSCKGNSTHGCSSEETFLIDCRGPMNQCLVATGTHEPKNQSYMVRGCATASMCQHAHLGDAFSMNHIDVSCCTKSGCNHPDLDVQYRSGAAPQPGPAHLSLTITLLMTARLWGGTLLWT
T3 sequence (Q03405 whole entry, looked up, the tested form may be a part): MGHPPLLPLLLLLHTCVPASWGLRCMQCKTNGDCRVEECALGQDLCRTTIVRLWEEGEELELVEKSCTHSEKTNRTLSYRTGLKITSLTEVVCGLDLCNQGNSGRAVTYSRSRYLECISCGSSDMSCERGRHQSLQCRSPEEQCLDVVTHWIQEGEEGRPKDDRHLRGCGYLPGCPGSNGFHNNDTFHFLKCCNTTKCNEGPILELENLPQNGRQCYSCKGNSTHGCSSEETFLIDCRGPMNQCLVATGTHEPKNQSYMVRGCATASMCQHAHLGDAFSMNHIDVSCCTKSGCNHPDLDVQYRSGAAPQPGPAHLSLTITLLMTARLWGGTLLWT
T1 sequence (Q03405 23-305 limits assumed): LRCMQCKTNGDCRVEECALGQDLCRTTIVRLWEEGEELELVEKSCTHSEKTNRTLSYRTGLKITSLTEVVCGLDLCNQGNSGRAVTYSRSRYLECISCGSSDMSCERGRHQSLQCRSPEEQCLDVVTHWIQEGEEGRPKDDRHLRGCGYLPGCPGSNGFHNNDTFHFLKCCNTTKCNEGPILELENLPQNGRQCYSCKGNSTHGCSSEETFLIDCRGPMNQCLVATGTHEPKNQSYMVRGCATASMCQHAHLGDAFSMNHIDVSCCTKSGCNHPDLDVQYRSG
T2 sequence (Q03405 23-305 limits assumed, one chain of several): as the sequence (Q03405 23-305 limits assumed) above
T5 sequence (Q03405 23-305, other chains not shown): as the sequence (Q03405 23-305 limits assumed) above

Substance | competition for uPA1–48 binding to sUPAR / receptor binding activity (in words) (suPAR [1]) | effect on binding of uPA1–48:uPAR complexes to vitronectin [2] | IC50 (uPAR) [µM] | bacteriophage binding to immobilized D23 versus sUPAR (sUPAR domain 2–3 (D23)) | further results
AE PMPHSLNFSQYAWYT [analog of clone 20 peptide, reference compound] | greatly reduced receptor binding activity | did not affect binding to vitronectin | – | – | –
AELDLSTFYDIQYLLRT-NH2 [peptide 18] | greatly reduced competition for uPA1–48 binding | blocks binding of complexes to vitronectin | 10 | intermediate degree of binding to D23 | effect on binding of uPA1–48:uPAR complexes to vitronectin ([2]; listed as clone 18): inhibit complex binding
AEPVYQYELDSYLRSYY-NH2 [peptide 7] | greatly reduced competition for uPA1–48 binding | inhibits complex binding to vitronectin | 10 | intermediate degree of binding to D23 | effect on ANS fluorescence enhancement in the presence of uPAR (suPAR [3]): reduced fluorescence in a dose dependent manner; effect on binding of uPA1–48:uPAR complexes to vitronectin ([2]; listed as clone 7): inhibit complex binding; block of uPAR mediated adhesion of stimulated U937 cells to vitronectin ([4]; listed as clone 7): effective blocker; block of uPAR mediated adhesion of stimulated U937 cells to vitronectin ([4]; listed as clone 7 peptide): could block; reduced binding to D23 versus suPAR (sUPAR domain 2–3 (D23)): about 50 fold
CLNGGTAVSNKYFSNLHWC [13-32^4] | – | – | 0.25 | – | –
H-AEPMPHSLNFSQYLWYT-NH2 [20^4] | – | – | 0.01 | – | –
H-AESTYHHLSLGYMYTLN-NH2 [compound 25] | – | – | > 10 | – | –
VEYRDAYSYPQYLSYLE [scrambled version of clone 7, same amino acids as clone 7, but in a different order, reference compound] | – | did not; also recorded: does not | – | – | block of uPAR mediated adhesion of stimulated U937 cells to vitronectin [4]: no effect
suPAR: soluble recombinant human urokinase receptor from baculovirus-infected Sf9 insect cells | – | – | – | – | adhesion of nontransfected 293 cells to fibronectin and collagen (nontransfected 293 cells): inhibited adhesion
uPA13–32: amino acids 13–32 of human urokinase with Cys19 converted to Ala (CLNGGTAVSNKYFSNIHWCN) [reference compound] | compete directly for uPA1–48 binding | reduce binding | – | bind signficantly only to intact sUPAR | –
vitronectin: vitronectin purified from human plasma | – | blocked | – | – | reduction of bacteriophage binding to the uPA1–48:suPAR complex (uPA1–48:suPAR complex): 5–10 fold
